According to PubChem BioAssay (NCI):
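The compound was tested at five concentrations on cells cultured in 96-well plates, with a 48-hour exposure period. At the GI50, growth is halved. The concentration for full growth arrest is given as TGI.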

How the values were obtained:
Test in all cases: growth of human tumour cells (NCI), 48 h
EKVX NSCLC = test system: EKVX NSCLC
HT29 colon = test system: HT29 colon
K-562 leukemia = test system: K-562 leukemia
SK-OV-3 ovarian = test system: SK-OV-3 ovarian
SN12C renal = test system: SN12C renal
SNB-19 CNS = test system: SNB-19 CNS
U251 CNS = test system: U251 CNS
OVCAR-4 ovarian = test system: OVCAR-4 ovarian
SNB-75 CNS = test system: SNB-75 CNS
LOX IMVI melanoma = test system: LOX IMVI melanoma

## CN(C)CCCNC(=O)c1cc(NC(=O)c2cc(NC(=O)CCNS(=O)(=O)c3ccc4c(c3)C(=O)c3ccccc3C4=O)cn2C)cn1C
EKVX NSCLC
  GI50: > 100 µM
  TGI: > 100 µM
HT29 colon
  GI50: > 100 µM
  TGI: > 100 µM
K-562 leukemia
  GI50: > 100 µM
  TGI: > 100 µM
SK-OV-3 ovarian
  GI50: > 100 µM
  TGI: > 100 µM
SN12C renal
  GI50: > 100 µM
  TGI: > 100 µM
SNB-19 CNS
  GI50: > 100 µM
  TGI: > 100 µM
U251 CNS
  GI50: > 100 µM
  TGI: > 100 µM

## Cc1cc(Cl)ccc1NC(=O)CC1SC(=Nc2ccccc2Cl)NC1=O (stereo unspecified)
EKVX NSCLC
  TGI: > 100 µM
HT29 colon
  TGI: > 100 µM
K-562 leukemia
  TGI: > 100 µM
OVCAR-4 ovarian
  TGI: > 100 µM
SK-OV-3 ovarian
  TGI: > 100 µM
SN12C renal
  TGI: > 100 µM
SNB-19 CNS
  TGI: > 100 µM
SNB-75 CNS
  TGI: > 100 µM
U251 CNS
  TGI: > 100 µM

## Clc1ccc(C(n2cc(Br)cn2)n2cc(Br)cn2)cc1
EKVX NSCLC
  TGI: 38.9 µM
HT29 colon
  TGI: 26.9 µM
K-562 leukemia
  TGI: 53.6 µM
OVCAR-4 ovarian
  TGI: 26.4 µM
SK-OV-3 ovarian
  TGI: 60.9 µM
SN12C renal
  TGI: 32.3 µM
U251 CNS
  TGI: 30.8 µM

## CCN1CCN(CC(=O)N2c3cccc4cccc(c34)N(C(=O)CN3CCN(CC)CC3)C2c2cn(-c3ccccc3)nc2-c2cccc([N+](=O)[O-])c2)CC1
EKVX NSCLC
  GI50: 1.79 µM
  TGI: 3.79 µM
HT29 colon
  GI50: 1.74 µM
  TGI: 3.84 µM
LOX IMVI melanoma
  GI50: 1.62 µM
  TGI: 3.11 µM
OVCAR-4 ovarian
  GI50: 1.79 µM
  TGI: 3.71 µM
SK-OV-3 ovarian
  GI50: 1.9 µM
  TGI: 3.74 µM
SN12C renal
  GI50: 1.49 µM
  TGI: 3.01 µM
SNB-19 CNS
  GI50: 1.66 µM
  TGI: 3.42 µM
SNB-75 CNS
  GI50: 1.13 µM
  TGI: 2.48 µM
U251 CNS
  GI50: 1.53 µM
  TGI: 3.21 µM

## CN(C)c1ccc(/C=c2\sc3nc4ccccc4n3c2=O)cc1
EKVX NSCLC
  TGI: > 100 µM
HT29 colon
  TGI: > 100 µM
K-562 leukemia
  TGI: > 100 µM
LOX IMVI melanoma
  TGI: > 100 µM
OVCAR-4 ovarian
  TGI: > 100 µM
SN12C renal
  TGI: > 100 µM
SNB-19 CNS
  TGI: > 100 µM
SNB-75 CNS
  TGI: > 100 µM
U251 CNS
  TGI: > 100 µM

## O=c1c2cc(Cl)ccc2sc2cccc(Cl)c12
EKVX NSCLC
  TGI: > 100 µM
HT29 colon
  TGI: > 100 µM
K-562 leukemia
  TGI: > 100 µM
LOX IMVI melanoma
  TGI: > 100 µM
OVCAR-4 ovarian
  TGI: > 100 µM
SN12C renal
  TGI: > 100 µM
SNB-19 CNS
  TGI: > 100 µM
U251 CNS
  TGI: > 100 µM

## CC1OC(n2cc(F)c(=O)[nH]c2=O)C=CC1=O (stereo unspecified)
HT29 colon
  TGI: 49.3 µM
K-562 leukemia
  TGI: > 100 µM
LOX IMVI melanoma
  TGI: 28.7 µM
OVCAR-4 ovarian
  TGI: 33.6 µM
SK-OV-3 ovarian
  TGI: 95.9 µM
SN12C renal
  TGI: 31.8 µM
SNB-19 CNS
  TGI: 34.8 µM
SNB-75 CNS
  TGI: 32.5 µM
U251 CNS
  TGI: 27.9 µM

## O=c1c(O)c(-c2cc(O)c(O)c(O)c2)oc2cc(O)cc(O)c12
HT29 colon
  TGI: 38.9 µM
K-562 leukemia
  TGI: > 100 µM
LOX IMVI melanoma
  TGI: 31 µM
OVCAR-4 ovarian
  TGI: 30.2 µM
SK-OV-3 ovarian
  TGI: > 100 µM
SN12C renal
  TGI: […]
SNB-75 CNS
  TGI: > 100 µM
U251 CNS
  TGI: 32.8 µM

## CCOc1ccc2nc(NC(=O)C(=O)C(c3cnc4ccccc4n3)[N+](=O)[O-])sc2c1 (stereo unspecified)
EKVX NSCLC
  TGI: > 100 µM
HT29 colon
  TGI: > 100 µM
K-562 leukemia
  TGI: > 100 µM
LOX IMVI melanoma
  TGI: > 100 µM
OVCAR-4 ovarian
  TGI: > 100 µM
SK-OV-3 ovarian
  TGI: > 100 µM
SN12C renal
  TGI: > 100 µM
SNB-19 CNS
  TGI: > 100 µM
SNB-75 CNS
  TGI: > 100 µM

## CN(C)c1ccc(/C=C/c2cc[n+](C)c(/C=C/c3ccc(N(C)C)cc3)c2)cc1
HT29 colon
  GI50: 0.274 µM
  TGI: 2.65 µM
K-562 leukemia
  GI50: 0.163 µM
  TGI: 3.25 µM
LOX IMVI melanoma
  GI50: 0.356 µM
  TGI: 1.45 µM
OVCAR-4 ovarian
  GI50: 0.225 µM
  TGI: 1.01 µM
SK-OV-3 ovarian
  GI50: 0.27 µM
  TGI: 1.39 µM
SN12C renal
  GI50: 0.273 µM
  TGI: 1.15 µM
SNB-19 CNS
  GI50: 0.322 µM
  TGI: 2.95 µM
SNB-75 CNS
  GI50: 0.253 µM
  TGI: 2.33 µM
U251 CNS
  GI50: 0.286 µM
  TGI: 1.41 µM

## COC(=O)/C=C/c1cc2c(cc1-c1c(C(=O)O)cc(OC)c(OC)c1OC)OCO2
HT29 colon
  TGI: > 10 µM
K-562 leukemia
  TGI: > 10 µM
LOX IMVI melanoma
  TGI: > 10 µM
OVCAR-4 ovarian
  TGI: > 10 µM
SK-OV-3 ovarian
  TGI: > 10 µM
SN12C renal
  TGI: > 10 µM
SNB-19 CNS
  TGI: > 10 µM
SNB-75 CNS
  TGI: > 10 µM
U251 CNS
  TGI: > 10 µM

## COc1cc(C2CC(c3ccc(Nc4ccnc5cc(Cl)ccc45)cc3)=NN2c2ccc(Cl)cc2)cc(OC)c1OC (stereo unspecified)
HT29 colon
  GI50: 2.66 µM
  TGI: > 100 µM
K-562 leukemia
  GI50: 0.857 µM
  TGI: > 100 µM
LOX IMVI melanoma
  GI50: 1.66 µM
  TGI: 11.3 µM
SK-OV-3 ovarian
  GI50: 3.26 µM
  TGI: > 100 µM
SN12C renal
  GI50: 7.56 µM
  TGI: > 100 µM
SNB-19 CNS
  GI50: 4.91 µM
  TGI: > 100 µM
SNB-75 CNS
  GI50: 1.11 µM
  TGI: 6.68 µM
U251 CNS
  GI50: 2.91 µM
  TGI: > 100 µM

## Cn1cc(C(=O)C[n+]2ccccc2)c2ccccc21
EKVX NSCLC
  TGI: 88.3 µM
HT29 colon
  TGI: > 100 µM
K-562 leukemia
  TGI: > 100 µM
LOX IMVI melanoma
  TGI: > 100 µM
OVCAR-4 ovarian
  TGI: > 100 µM
SN12C renal
  TGI: > 100 µM
SNB-19 CNS
  TGI: > 100 µM
SNB-75 CNS
  TGI: > 100 µM

## COC(=O)CC[C@H](Cc1ccccc1)NC(=O)c1csc([C@@H](C[C@H](C(C)C)N(C)C(=O)[C@@H](NC(=O)[C@H]2CCCCN2C)C(C)C)OC(C)=O)n1
EKVX NSCLC
  GI50: 0.00801 µM
  TGI: > 25 µM
HT29 colon
  GI50: < 0.0025 µM
  TGI: > 25 µM
K-562 leukemia
  GI50: < 0.0025 µM
  TGI: > 25 µM
LOX IMVI melanoma
  GI50: < 0.0025 µM
  TGI: > 25 µM
OVCAR-4 ovarian
  GI50: 0.023 µM
  TGI: > 25 µM
SK-OV-3 ovarian
  GI50: < 0.0025 µM
  TGI: > 25 µM
SN12C renal
  GI50: < 0.0025 µM
  TGI: > 25 µM
SNB-75 CNS
  GI50: < 0.0025 µM
  TGI: > 25 µM
U251 CNS
  GI50: < 0.0025 µM
  TGI: > 25 µM

## Cc1cc2c(C)nn(Cc3ccc(Cl)cc3)c2c(C#N)c1C
EKVX NSCLC
  TGI: > 100 µM
SK-OV-3 ovarian
  TGI: > 100 µM
SN12C renal
  TGI: > 100 µM
SNB-19 CNS
  TGI: > 100 µM
U251 CNS
  TGI: > 100 µM

## Cc1ccc(Cl)cc1NC(=O)c1sc2nc3c(cc2c1N)C(=O)CCC3
EKVX NSCLC
  GI50: 7.26 µM
  TGI: > 100 µM
HT29 colon
  GI50: 3.54 µM
  TGI: > 100 µM
K-562 leukemia
  GI50: 3.48 µM
  TGI: > 100 µM
OVCAR-4 ovarian
  GI50: > 100 µM
  TGI: > 100 µM
SK-OV-3 ovarian
  GI50: 5.26 µM
  TGI: > 100 µM
SNB-19 CNS
  GI50: 5.64 µM
  TGI: > 100 µM
SNB-75 CNS
  GI50: 4.1 µM
  TGI: > 100 µM
U251 CNS
  GI50: 4.45 µM
  TGI: > 100 µM

## N#C/C(=C\c1ccc(Br)cc1)n1nnc2ccc(F)cc21
K-562 leukemia
  GI50: 0.332 µM
  TGI: > 100 µM
LOX IMVI melanoma
  GI50: 0.347 µM
  TGI: 1.28 µM
OVCAR-4 ovarian
  GI50: 0.939 µM
  TGI: 5.31 µM
SK-OV-3 ovarian
  GI50: 4.85 µM
  TGI: > 100 µM
SN12C renal
  GI50: 1.72 µM
  TGI: 4.37 µM
SNB-19 CNS
  GI50: 1.66 µM
  TGI: 3.16 µM
SNB-75 CNS
  TGI: 2.24 µM
U251 CNS
  GI50: 1.64 µM
  TGI: 3.34 µM

## CN(C)CC/[N+]([O-])=C(/c1ccccc1)C12CC3CC(CC(C3)C1)C2
EKVX NSCLC
  TGI: 38.1 µM
HT29 colon
  TGI: 23.8 µM
K-562 leukemia
  TGI: 30.8 µM
LOX IMVI melanoma
  TGI: 31.2 µM
SK-OV-3 ovarian
  TGI: 31.4 µM
SN12C renal
  TGI: 31.9 µM
SNB-19 CNS
  TGI: 37.5 µM
SNB-75 CNS
  TGI: 24.7 µM
U251 CNS
  TGI: 29.7 µM

## O=c1cccccc1[O-].O=c1cccccc1[O-].O=c1cccccc1[O-].[La+3]
EKVX NSCLC
  TGI: > 100 µM
HT29 colon
  TGI: > 100 µM
K-562 leukemia
  TGI: > 100 µM
LOX IMVI melanoma
  TGI: > 100 µM
OVCAR-4 ovarian
  TGI: > 100 µM
SK-OV-3 ovarian
  TGI: 86.9 µM
SN12C renal
  GI50: 22.3 µM
  TGI: > 100 µM
SNB-19 CNS
  TGI: 84.1 µM
U251 CNS
  GI50: 11 µM
  TGI: 76.2 µM
